Test results from patent publication US20040106653A1, “Aminoalcohol derivatives” (FUJISAWA PHARMACEUTICAL CO., LTD., priority 2002, published 2004).

Test system: carbachol-induced increase in intravesical pressure (IVP) in anesthetized dog
Test: Effect on the increase in intravesical pressure induced by carbachol in anesthetized dog
Format: in vivo
Conditions: 0.032 mg/kg, intravenous; female Beagle dogs under halothane anesthesia; carbachol 1.8 μg/kg
Protocol: Effect on the increase in intravesical pressure induced by carbachol in anesthetized dog Test Method Female Beagle dogs weighing 8.0-15.0 kg were fasted for 24 hours and maintained under halothane anesthesia. A 12F Foley catheter was lubricated with water soluble jelly, inserted into the urethral orifice and advanced approximately 10 cm until the balloon tip was placed well inside the bladder. The balloon was then inflated with 5 ml of room air and catheter slowly withdrawn just part the first resistance that is felt at the bladder neck. Urine was completely drained out through the catheter, and 30 ml of biological saline was infused. The catheter was connected to pressure transducer, and intravesical pressure was continuously recorded. Intravenous administration of test compound (I) inhibited carbachol (1.8 μg/kg)-induced increase in intravesical pressure (IVP).

C[C@H](Cc1ccc(S(=O)(=O)c2ccc(C(=O)N(C)CC(=O)O)cc2)cc1)NC[C@H](O)c1cccc(Cl)c1.Cl [Test Compound (1), [[4-[[4-[(2R)-2-[[(2R)-2-(3-Chlorophenyl)-2-hydroxyethyl]amino]propyl]phenyl]sulfonyl]benzoyl]-(methyl)amino]acetic acid hydrochloride]
% inhibition of carbachol-induced increase in IVP: 80.8%
